Assay results: publication PMC6325200, “Effects of Microplate Type and Broth Additives on Microdilution MIC Susceptibility Assays” (Antimicrobial Agents and Chemotherapy, 2018)
Converted amounts (≈) assume the structure as drawn. Where a SMILES comes first, the peptide text is derived from it. Bridges are numbered along the chain shown (N, C = ends). [ ]: non-standard residue; d: D form. The star is where a group is joined. X1 = CC[C@H](C)CCCCC(=O)*; Dab = NCC[C@H](N)C(=O)O

Assays:
[1] = literature values, reference given; cited from earlier work
Description: Other assay additives can affect MIC values. […] Plasma protein binding has been implicated as a major factor limiting the active free concentration of many clinically important antibiotics ([37][–][42]).

over 200 strains = details: 0.002% polysorbate added; cited from earlier work
Description: Members of the lipopeptide polymyxin class of antibiotics (polymyxin B [compound 7a] and polymyxin E [or colistin, compound 7b]) are important last-line therapeutic agents against many multidrug-resistant Gram-negative bacteria ([27][–][31]). They consist of an N-terminal fatty acid side chain that is attached to a polycationic deca-peptide backbone (Fig. 1) with physicochemical properties similar to those of the lipoglycopeptides. These structural features confer amphipathicity, which is a key feature of many other cationic antimicrobial peptides (CAMPs) ([32][–][34]). As mentioned earlier, p ...

E. coli ATCC 25922 = assay: microbe, parasite or virus in culture
Experimental: (§1) A positive control of a row of just the bacteria and a negative control of only the medium were included for every plate tested.
(§2) The compounds along with standard antibiotics were serially diluted 2-fold across the 96-well plates. […] A sample of each culture was then diluted 40-fold in fresh MH broth (in presence and absence of Tween) and incubated at 37°C for 2 to 3 h.
For experiments in the presence of surfactant, 2% beractant (25 mg/ml) was added to the mid-log-phase cultures and mixed gently and added to all the 96-well plates. For experiments in the presence of serum, a mixture of 50% of human serum along with 50% MHB was prepared and used throughout the experiment.

P. aeruginosa ATCC 10145 = assay: microbe, parasite or virus in culture; details: n = 2
Experimental: as §1, §2

K. pneumoniae ATCC 13883 = assay: microbe, parasite or virus in culture; details: n = 2
Experimental: as §1, §2

A. baumannii ATCC 19606 = assay: microbe, parasite or virus in culture; details: n = 2
Experimental: as §1, §2

E. coli = details: literature value; cited from earlier work

SMILES: CC[C@H](C)CCCCC(=O)N[C@@H](CCN)C(=O)N[C@H](C(=O)N[C@@H](CCN)C(=O)N[C@H]1CCNC(=O)[C@H]([C@@H](C)O)NC(=O)[C@H](CCN)NC(=O)[C@H](CCN)NC(=O)[C@H](CC(C)C)NC(=O)[C@@H](Cc2ccccc2)NC(=O)[C@H](CCN)NC1=O)[C@@H](C)O [Polymyxin B, polymyxin B] (X1-[Dab]T[Dab][Dab][Dab][dF]L[Dab][Dab]T; lactam 4-C (inferred); N-terminus assumed)
- protein binding [1]: 50 to 60%
- more potent MICs with surfactant present (over 200 strains): 4- to 8 fold
- MIC (E. coli ATCC 25922; Corning NBS, MH + 2% LHB, 2% LS, n = 2): ≤0.03 µg/mL
- MIC (E. coli ATCC 25922; Corning NBS, MH + 2% LHB, 50% HS, n = 2): ≤0.03 µg/mL
- MIC (E. coli ATCC 25922; Corning NBS, MH + 2% LHB, no additive, n = 2): ≤0.03 µg/mL
- MIC (E. coli ATCC 25922; Corning NBS, MH + T80, 2% LS, n = 2): ≤0.03 µg/mL
- MIC (E. coli ATCC 25922; Corning NBS, MH + T80, 50% HS, n = 2): 0.03 to 0.06 µg/mL
- MIC (E. coli ATCC 25922; Corning NBS, MH, 2% LS, n = 2): ≤0.03 µg/mL
- MIC (E. coli ATCC 25922; Corning NBS, MH, 50% HS, n = 2): ≤0.03 µg/mL
- MIC (E. coli ATCC 25922; Corning PS plate, MHB +0.002% T80, no further additive, n = 2): 0.03 to 0.25 µg/mL
- MIC (E. coli ATCC 25922; Corning PS plate, MHB −T80, no additive, n = 2): 0.06 µg/mL (≈ 0.0499 µM)
- MIC (E. coli ATCC 25922; Corning PS, MH + 2% LHB, 2% LS, n = 2): 0.06 µg/mL
- MIC (E. coli ATCC 25922; Corning PS, MH + 2% LHB, 50% HS, n = 2): 0.03 to 0.06 µg/mL
- MIC (E. coli ATCC 25922; Corning PS, MH + 2% LHB, no additive, n = 2): 2 to 8 µg/mL
- MIC (E. coli ATCC 25922; Corning PS, MH + T80, 2% LS, n = 2): 0.06 to 0.125 µg/mL
- MIC (E. coli ATCC 25922; Corning PS, MH + T80, 50% HS, n = 2): 0.03 to 0.06 µg/mL
- MIC (E. coli ATCC 25922; Corning PS, MH, 2% LS, n = 2): 0.06 to 0.125 µg/mL
- MIC (E. coli ATCC 25922; Corning PS, MH, 50% HS, n = 2): ≤0.03 µg/mL
- MIC (E. coli ATCC 25922; Corning TC plate, MHB +0.002% T80, no further additive, n = 2): 2 µg/mL (≈ 1.66 µM)
- MIC (E. coli ATCC 25922; Corning TC plate, MHB −T80, no additive, n = 2): 1 to 2 µg/mL
- MIC (E. coli ATCC 25922; Corning TC, MH + 2% LHB, 2% LS, n = 2): 2 to 8 µg/mL
- MIC (E. coli ATCC 25922; Corning TC, MH + 2% LHB, 50% HS, n = 2): 4 µg/mL
- MIC (E. coli ATCC 25922; Corning TC, MH + 2% LHB, no additive, n = 2): 0.125 µg/mL
- MIC (E. coli ATCC 25922; Corning TC, MH + T80, 2% LS, n = 2): 2 to 4 µg/mL
- MIC (E. coli ATCC 25922; Corning TC, MH + T80, 50% HS, n = 2): 1 to 4 µg/mL
- MIC (E. coli ATCC 25922; Corning TC, MH, 2% LS, n = 2): 4 µg/mL (≈ 3.32 µM)
- MIC (E. coli ATCC 25922; Corning TC, MH, 50% HS, n = 2): 0.25 to 0.5 µg/mL
- MIC (E. coli ATCC 25922; NBS plates): ≤ 0.03 µg/mL
- MIC (E. coli ATCC 25922; Nunc PS plate, MHB +0.002% T80, n = 2): 0.03 to 0.06 µg/mL
- MIC (E. coli ATCC 25922; Nunc PS plate, MHB −T80, n = 2): 0.125 to 0.25 µg/mL
- MIC (E. coli ATCC 25922; Nunc U TC plate, MHB +0.002% T80, n = 2): 2 to 4 µg/mL
- MIC (E. coli ATCC 25922; Nunc U TC plate, MHB −T80, n = 2): 1 to 4 µg/mL
- MIC (E. coli ATCC 25922; Nunc flat TC plate, MHB +0.002% T80, n = 2): 2 µg/mL (≈ 1.66 µM)
- MIC (E. coli ATCC 25922; Nunc flat TC plate, MHB −T80, n = 2): 1 µg/mL (≈ 0.831 µM)
- MIC (E. coli ATCC 25922; Trek PS plate, MHB +0.002% T80, no further additive, n = 2): 0.03 to 0.06 µg/mL
- MIC (E. coli ATCC 25922; Trek PS plate, MHB −T80, no additive, n = 2): 0.06 to 0.125 µg/mL
- MIC (E. coli ATCC 25922; Trek PS, MH + 2% LHB, 2% LS, n = 2): ≤0.03 µg/mL
- MIC (E. coli ATCC 25922; Trek PS, MH + 2% LHB, 50% HS, n = 2): ≤0.03 µg/mL
- MIC (E. coli ATCC 25922; Trek PS, MH + 2% LHB, no additive, n = 2): 0.03 to 0.25 µg/mL
- MIC (E. coli ATCC 25922; Trek PS, MH + T80, 2% LS, n = 2): 0.03 to 0.06 µg/mL
- MIC (E. coli ATCC 25922; Trek PS, MH + T80, 50% HS, n = 2): 0.03 to 0.125 µg/mL
- MIC (E. coli ATCC 25922; Trek PS, MH, 2% LS, n = 2): 0.5 to 1 µg/mL
- MIC (E. coli ATCC 25922; Trek PS, MH, 50% HS, n = 2): ≤0.03 µg/mL
- MIC (P. aeruginosa ATCC 10145; Corning NBS, MHB +T80): 0.03 to 0.125 µg/mL
- MIC (P. aeruginosa ATCC 10145; Corning NBS, MHB -T80): 0.03 to 0.06 µg/mL
- MIC (P. aeruginosa ATCC 10145; Corning PS, MHB +T80): 0.5 to 1 µg/mL
- MIC (P. aeruginosa ATCC 10145; Corning PS, MHB -T80): 0.25 to 1 µg/mL
- MIC (P. aeruginosa ATCC 10145; Corning TC, MHB +T80): 2 to 4 µg/mL
- MIC (P. aeruginosa ATCC 10145; Corning TC, MHB -T80): 1 to 4 µg/mL
- MIC (K. pneumoniae ATCC 13883; Corning NBS, MHB +T80): ≤ 0.03 µg/mL
- MIC (K. pneumoniae ATCC 13883; Corning NBS, MHB -T80): 0.03 to 0.125 µg/mL
- MIC (K. pneumoniae ATCC 13883; Corning PS, MHB +T80): 0.03 to 0.06 µg/mL
- MIC (K. pneumoniae ATCC 13883; Corning PS, MHB -T80): 0.06 to 0.25 µg/mL
- MIC (K. pneumoniae ATCC 13883; Corning TC, MHB +T80): 1 µg/mL (≈ 0.831 µM)
- MIC (K. pneumoniae ATCC 13883; Corning TC, MHB -T80): 1 µg/mL (≈ 0.831 µM)
- MIC (A. baumannii ATCC 19606; Corning NBS, MHB +T80): ≤ 0.03 µg/mL
- MIC (A. baumannii ATCC 19606; Corning NBS, MHB -T80): ≤ 0.03 µg/mL
- MIC (A. baumannii ATCC 19606; Corning PS, MHB +T80): ≤ 0.03 µg/mL
- MIC (A. baumannii ATCC 19606; Corning PS, MHB -T80): 0.06 to 0.125 µg/mL
- MIC (A. baumannii ATCC 19606; Corning TC, MHB +T80): 2 to 4 µg/mL
- MIC (A. baumannii ATCC 19606; Corning TC, MHB -T80): 0.5 to 1 µg/mL
- MIC (literature) (E. coli): 0.25–1 ([73]) µg/ml
